Reference: patent US20240207379A1, “STRATEGIES TO PREVENT AND/OR TREAT IMMUNE RESPONSES TO SOLUBLE ALLOFACTORS” (IMCYSE SA, priority 2008, published 2024)

How the values were obtained:
[1] = system: CFSE-labelled CD4(F8-) effector CD4+ T cells; experiment: Apoptosis of factor VIII-specific effector CD4+ T cells by cytolytic CD4+ T cells elicited with modified factor VIII epitope (Annexin V / 7-AAD); type: cell-based, factor VIII KO mice; details: APC (spleen B cells) loaded with 5 μg/ml huFVIII and 1 µM peptide, 72 h at 37° C., baseline mortality subtracted
Description: FIG. 2. Apoptosis of allofactor-specific effector T-cells by cytolytic CD4+ T-cells induced by a T-cell epitope derived from said allofactor and modified by attaching a thioreductase motif. The allofactor used was factor VIII. See Example 5 for more details.
Polyclonal effector CD4+ T cells were obtained from the spleen of factor VIII KO mice immunised with 2 IU of recombinant human FVIII (CD4(F8-)) and purified using anti-CD4 magnetic beads. The cells were then labelled with CFSE.
Induction of apoptosis as measured by of CFSE-labelled cells was then measured by Annexin V and 7-AAD staining after incubating such cells with APC (spleen B cells) loaded with 5 μg/ml huFVIII and 1 µM of peptide of SEQ ID NO:5 (CGHCGGFTNMFATWSPSK, corresponding to the 2196-2207 amino acid sequence of the C2 domain of human factor VIII, modified by addition of a thioreductase motif (underlined) separated by 2 glycines from the Factor VIII T-cell epitope). Apoptosis was measured after 72 h culture at 37° C. When CFSE-labelled CD4(F8-) cells were co-cultured with CD4+ T cells obtained from mice immunised with a synthetic peptide of SEQ ID NO:5 (cytolytic CD4+ T cells), significant apoptosis was induced. […] When CFSE-labelled CD4(F8−) cells were co-cultured in the presence of a double number of unlabeled CD4(F8−) cells, no apoptosis was induced (“CD4(F8−)” caption in FIG. 2). […]

murine splenic B cells = experiment: Induction into apoptosis of splenic B cells of naïve mice by CD4+ T cells expanded with peptide (annexin V / 7-AAD Facs); type: cell-based, C57BI/6 mice
Method: FIG. 1. The bars in this Figure illustrate the viability of murine splenic B cells incubated under different conditions and evaluated by Facs analysis of annexin V binding and 7-AAD (two markers of apoptosis). • B (wt-pep): murine splenic B cells incubated with natural (wild-type) T-cell epitope derived from human anti-fVIII antibody; • B (cc-pep): murine splenic B cells incubated with T-cell epitope derived from human anti-fVIII antibody, wherein said T-cell epitope is modified by attaching the amino acids CHGC (SEQ ID NO: 20) to the N-terminus of the epitope; • B (cc-pep)+ T (cc-pep): murine splenic B cells incubated with modified anti-fVIII antibody T-cell epitope and with T cells expanded with modified T-cell epitope (modification as in “B (cc-pep)”); • B (wt-pep)+ T (cc-pep): murine splenic B cells incubated with wild-type anti-fVIII antibody T-cell epitope and T cells expanded with the corresponding modified T-cell epitope.
It was determined whether naïve B cells presenting a class II restricted T cell epitope derived from a BCR idiotype could be deleted by recognition and activation of T cells elicited to a specific anti-factor VIII antibody carrying the same idiotype. […]

Which results are given for “CGHCGGFTNMFATWSPSK (modified human factor VIII T-cell epitope; MISC_FEATURE - thioreductase motif; MISC_FEATURE - Gly-Gly-linker) [SEQ ID NO:5]”?
apoptosis of CFSE-labelled CD4(F8-) cells co-cultured with cytolytic CD4+ T cells from mice immunised with the peptide ([1]; CD4(F8+) pool1): 6.6%; apoptosis of CFSE-labelled CD4(F8-) cells co-cultured with cytolytic CD4+ T cells from mice immunised with the peptide ([1]; CD4(F8+)pool2): 8.4%

With “CHGCYCAVPDPDA (modified T-cell epitope of CDR3 of anti-factor VIII antibody BO2C11; MISC_FEATURE - thioreductase motif) [SEQ ID NO:2]” as the sequence, how does the “induction into apoptosis of B cells by T cells expanded with the peptide” value (murine splenic B cells; B cells loaded with either peptide of SEQ ID NO:1 or SEQ ID NO:2, FIG. 1) read?
The value was “induced into apoptosis”.

Which “influence on the survival of control B cells of T cells expanded with the peptide” value (murine splenic B cells; incubation period of 18 h, data not shown) does the source give for “YCAVPDDPDA (T-cell epitope of CDR3 of anti-factor VIII antibody BO2C11) [SEQ ID NO:1, reference compound]” here?
Its value is “no or only little influence”.
